Laboratory results as given in patent US6737383B1, “Herbicidal oxadiazolidines” (priority 1999, dated 2004).

Key:
bedstraw = experiment: Test B pre/postemergence bedstraw; type: in vivo, Galium aparine
Method in brief: (§1)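 Test chemicals in a non-phytotoxic solvent mixture with surfactant were sprayed preemergence onto planted seeds and postemergence onto plants 2 to 18 cm tall (1- to 4-leaf stage). After twelve to sixteen days in a greenhouse, injury was visually rated against untreated controls from 0 (no effect) to 10 (complete control).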

blackgrass = experiment: Test B pre/postemergence blackgrass; type: in vivo, Alopecurus myosuroides
Method in brief: as §1

surinam grass = experiment: Test B pre/postemergence surinam grass; type: in vivo, Brachiaria decumbens
Method in brief: as §1

cocklebur = experiment: Test B pre/postemergence cocklebur; type: in vivo, Xanthium strumarium
Method in brief: as §1

corn = experiment: Test B pre/postemergence corn; type: in vivo, Zea mays
Method in brief: as §1

crabgrass = experiment: Test B pre/postemergence crabgrass; type: in vivo, Digitaria sanguinalis
Method in brief: as §1

giant foxtail = experiment: Test B pre/postemergence giant foxtail; type: in vivo, Setaria faberii
Method in brief: as §1

morningglory = experiment: Test B pre/postemergence morningglory; type: in vivo, Ipomoea hederacea
Method in brief: as §1

pigweed = experiment: Test B pre/postemergence pigweed; type: in vivo, Amaranthus retroflexus
Method in brief: as §1

rape = experiment: Test B pre/postemergence rape; type: in vivo, Brassica napus
Method in brief: as §1

soybean = experiment: Test B pre/postemergence soybean; type: in vivo, Glycine max
Method in brief: as §1

sugar beet = experiment: Test B pre/postemergence sugar beet; type: in vivo, Beta vulgaris
Method in brief: as §1

velvetleaf = experiment: Test B pre/postemergence velvetleaf; type: in vivo, Abutilon theophrasti
Method in brief: as §1

wheat = experiment: Test B pre/postemergence wheat; type: in vivo, Triticum aestivum
Method in brief: as §1

wild oat = experiment: Test B pre/postemergence wild oat; type: in vivo, Avena fatua
Method in brief: as §1

purple nutsedge = experiment: Test B pre/postemergence purple nutsedge; type: in vivo, Cyperus rotundus
Method in brief: as §1

[1] = Postemergence, Rate 62 g/ha, scale of 0 to 10, 0 is no effect, 10 is complete control
[2] = Postemergence, Rate 125 g/ha, scale 0 to 10, 0 is no effect, 10 is complete control
[3] = Preemergence, Rate 62 g/ha, scale 0 to 10 (0 no effect, 10 complete control)
[4] = Preemergence, Rate 125 g/ha, scale 0 to 10, 0 is no effect, 10 is complete control
[5] = Preemergence, Rate 500 g/ha, scale of 0 to 10 where 0 is no effect and 10 is complete control
[6] = Rate 250 g/ha, Postemergence, scale of 0 to 10 where 0 is no effect and 10 is complete control
[7] = Postemergence, Rate 500 g/ha, scale 0 to 10, 0 is no effect, 10 is complete control

## CC(C)N(C(=O)n1oc(=O)n(CCCC(F)(F)F)c1=O)c1ccc(Cl)cc1 [Compound 555]
bedstraw; [1]
  Bedstraw plant response rating: 2
bedstraw; [2]
  Bedstraw plant response rating: 9
bedstraw; [3]
  Bedstraw plant response rating: 0
bedstraw; [4]
  Bedstraw plant response rating: 0
bedstraw; Preemergence, Rate 250 g/ha
  Bedstraw plant response rating (0 to 10 scale): 0
bedstraw; [5]
  Bedstraw plant response rating: 0
bedstraw; [6]
  Plant response rating, Bedstraw: 9
blackgrass; [1]
  Blackgrass plant response rating: 0
blackgrass; [2]
  Blackgrass plant response rating: 2
blackgrass; [7]
  Plant response rating, Blackgrass: 5
blackgrass; [3]
  Blackgrass plant response rating: 0
blackgrass; [4]
  Blackgrass plant response rating: 0
blackgrass; Preemergence, Rate 250 g/ha
  Blackgrass plant response rating (0 to 10 scale): 0
blackgrass; [5]
  Blackgrass plant response rating: 8
blackgrass; [6]
  Plant response rating, Blackgrass: 2
Surinam grass; [1]
  B. signalgrass plant response rating: 0
Surinam grass; [2]
  B. signalgrass plant response rating: 0
Surinam grass; [7]
  Plant response rating, B. signalgrass: 4
Surinam grass; [3]
  B. signalgrass plant response rating: 6
Surinam grass; [5]
  B. signalgrass plant response rating: 8
Surinam grass; [6]
  Plant response rating, B. signalgrass: 0
cocklebur; [1]
  Cocklebur plant response rating: 0
cocklebur; [2]
  Cocklebur plant response rating: 0
cocklebur; [7]
  Plant response rating, Cocklebur: 3
cocklebur; [3]
  Cocklebur plant response rating: 0
cocklebur; [4]
  Cocklebur plant response rating: 0
cocklebur; Preemergence, Rate 250 g/ha
  Cocklebur plant response rating (0 to 10 scale): 2
cocklebur; [5]
  Cocklebur plant response rating: 9
cocklebur; [6]
  Plant response rating, Cocklebur: 0
corn; [1]
  Corn plant response rating: 0
corn; [2]
  Corn plant response rating: 0
corn; [7]
  Plant response rating, Corn: 0
corn; [3]
  Corn plant response rating: 0
corn; [4]
  Corn plant response rating: 0
corn; Preemergence, Rate 250 g/ha
  Corn plant response rating (0 to 10 scale): 0
corn; [5]
  Corn plant response rating: 2
corn; [6]
  Plant response rating, Corn: 0
crabgrass; [1]
  Crabgrass plant response rating: 0
crabgrass; [2]
  Crabgrass plant response rating: 0
crabgrass; [7]
  Plant response rating, Crabgrass: 10
crabgrass; [3]
  Crabgrass plant response rating: 9
crabgrass; [4]
  Crabgrass plant response rating: 9
crabgrass; Preemergence, Rate 250 g/ha
  Crabgrass plant response rating (0 to 10 scale): 10
crabgrass; [5]
  Crabgrass plant response rating: 10
crabgrass; [6]
  Plant response rating, Crabgrass: 9
Giant foxtail; [1]
  Giant foxtail plant response rating: 0
Giant foxtail; [2]
  Giant foxtail plant response rating: 0
Giant foxtail; [7]
  Plant response rating, Giant foxtail: 8
Giant foxtail; [3]
  Giant foxtail plant response rating: 9
Giant foxtail; [4]
  Giant foxtail plant response rating: 10
Giant foxtail; Preemergence, Rate 250 g/ha
  Giant foxtail plant response rating (0 to 10 scale): 10
Giant foxtail; [5]
  Giant foxtail plant response rating: 10
Giant foxtail; [6]
  Plant response rating, Giant foxtail: 8
morningglory; [1]
  Morningglory plant response rating: 1
morningglory; [2]
  Morningglory plant response rating: 2
morningglory; [7]
  Plant response rating, Morningglory: 6
morningglory; [3]
  Morningglory plant response rating: 0
morningglory; [4]
  Morningglory plant response rating: 0
morningglory; Preemergence, Rate 250 g/ha
  Morningglory plant response rating (0 to 10 scale): 0
morningglory; [5]
  Morningglory plant response rating: 0
morningglory; [6]
  Plant response rating, Morningglory: 5
pigweed; [1]
  Redroot pigweed plant response rating: 0
pigweed; [7]
  Plant response rating, Redroot pigweed: 2
pigweed; [3]
  Redroot pigweed plant response rating: 0
pigweed; [4]
  Redroot pigweed plant response rating: 0
pigweed; Preemergence, Rate 250 g/ha
  Redroot pigweed plant response rating (0 to 10 scale): 3
pigweed; [5]
  Redroot pigweed plant response rating: 7
pigweed; [6]
  Plant response rating, Redroot pigweed: 2
rape; [1]
  Rape plant response rating: 4
rape; [2]
  Rape plant response rating: 5
rape; [7]
  Plant response rating, Rape: 5
rape; [3]
  Rape plant response rating: 0
rape; [4]
  Rape plant response rating: 0
rape; Preemergence, Rate 250 g/ha
  Rape plant response rating (0 to 10 scale): 0
rape; [5]
  Rape plant response rating: 0
soybean; [1]
  Soybean plant response rating: 1
soybean; [7]
  Plant response rating, Soybean: 2
soybean; [3]
  Soybean plant response rating: 0
soybean; [4]
  Soybean plant response rating: 0
soybean; Preemergence, Rate 250 g/ha
  Soybean plant response rating (0 to 10 scale): 0
soybean; [5]
  Soybean plant response rating: 2
soybean; [6]
  Plant response rating, Soybean: 2
Sugar beet; [1]
  Sugarbeets plant response rating: 0
Sugar beet; [7]
  Plant response rating, Sugarbeets: 0
Sugar beet; [3]
  Sugarbeets plant response rating: 2
Sugar beet; [4]
  Sugarbeets plant response rating: 5
Sugar beet; [5]
  Sugarbeets plant response rating: 5
Sugar beet; [6]
  Plant response rating, Sugarbeets: 0
velvetleaf; [1]
  Velvetleaf plant response rating: 0
velvetleaf; [7]
  Plant response rating, Velvetleaf: 4
velvetleaf; [3]
  Velvetleaf plant response rating: 0
velvetleaf; [4]
  Velvetleaf plant response rating: 0
velvetleaf; Preemergence, Rate 250 g/ha
  Velvetleaf plant response rating (0 to 10 scale): 0
velvetleaf; [5]
  Velvetleaf plant response rating: 6
velvetleaf; [6]
  Plant response rating, Velvetleaf: 2
wheat; [1]
  Wheat plant response rating: 6
wheat; [7]
  Plant response rating, Wheat: 2
wheat; [3]
  Wheat plant response rating: 0
wheat; [4]
  Wheat plant response rating: 0
wheat; Preemergence, Rate 250 g/ha
  Wheat plant response rating (0 to 10 scale): 2
wheat; [5]
  Wheat plant response rating: 3
wheat; [6]
  Plant response rating, Wheat: 0
Wild oat; [1]
  Wild oats plant response rating: 0
Wild oat; [7]
  Plant response rating, Wild oats: 2
Wild oat; [3]
  Wild oats plant response rating: 0
Wild oat; [4]
  Wild oats plant response rating: 0
Wild oat; Preemergence, Rate 250 g/ha
  Wild oats plant response rating (0 to 10 scale): 0
Wild oat; [5]
  Wild oats plant response rating: 7
Wild oat; [6]
  Plant response rating, Wild oats: 0
Purple nutsedge; [1]
  Nutsedge plant response rating: 0
Purple nutsedge; [2]
  Nutsedge plant response rating: 0
Purple nutsedge; [7]
  Plant response rating, Nutsedge: 0
Purple nutsedge; [3]
  Nutsedge plant response rating: 0
Purple nutsedge; [4]
  Nutsedge plant response rating: 0
Purple nutsedge; Preemergence, Rate 250 g/ha
  Nutsedge plant response rating (0 to 10 scale): 0
Purple nutsedge; [5]
  Nutsedge plant response rating: 0
Purple nutsedge; [6]
  Plant response rating, Nutsedge: 0
